Experimental data as given in patent publication US20200337992A1, “Auricular Cleaning Composition” (priority 2015, published 2020).

Test: In vitro cerumenolytic effect test on synthetic cerumen
Settings: for % of cerumen removed: Table 3, total after four successive applications; for cerumenolytic activity / cerumenolytic effect: cf. FIG. 1, in vitro test
Description: Thus, the selected formula of the synthetic cerumen which makes it possible to evaluate the in vitro cerumenolytic effect of agents is the following: [table] In order to select a new combination of cerumenolytic agents, the cerumenolytic effect test was employed using the cerumen described in the table above. […] The distribution is carried out in such a way that the cerumen is present only in the bottom of the tube and not on the edges or the opening, which could distort the results. The tubes are then left to stand for the amount of time required for the cerumen to solidify. The distribution is carried out the day before the in vitro test in order to leave the cerumen with a minimum of 24 h to cool and solidify. The dimensions of the test tube, the temperature at which the test was carried out and the amount of synthetic cerumen were chosen to represent as faithfully as possible, in vitro, the dog ear canal. According to these parameters, the procedure followed for measuring the in vitro effectiveness of an agent or of a combination of agents having a cerumenolytic effect is the following: =>The test tube containing only the cerumen is weighed before the test. […] =>The test tube is then attached to a stirring turbine and immersed in a bath of water heated to 35° C. (the water height is sufficient for the content of the tube (cerumen+test product) to be immersed. =>The stirring is maintained for 20 minutes at 50 rpm. […] This step makes it possible to remove the product and the cerumen debris detached by the cerumenolytic agent. =>At the end of the time elapsed, the tube is weighed to evaluate the amount of cerumen removed. =>This process is carried out four times in a row, on each same tube, in order to simulate and evaluate the application number required to remove the cerumen plug present in the dog ear canal. Each time, the cerumen remaining at the bottom of the tube is dried and then weighed. […] As previously indicated, in order to check the effectiveness of an agent, the test tubes are weighed before the test is carried out and after the phase of leaving to stand upside down for 1 h. The removal of the cerumen is, according to this process, evaluated as for this example: =>Weight of the tube A before test 1: 3.493 g and weight of the tube A after test 1: 3.449 g =>Percentage of cerumen removed: […] The percentages are thus calculated for each test: from 1 to 4. The total percentage of cerumen removed is obtained after having repeated the operation successively four times for one and the same tube.

[1] = 500 mg synthetic cerumen, 2 ml test product, 35° C., 20 minutes at 50 rpm

Compound	% of cerumen removed [1] [%]	cerumenolytic activity / cerumenolytic effect	% cerumen removed (after test 4) (Table 4, 500 mg synthetic cerumen, 2 ml test product, 35° C., 20 minutes at 50 rpm, after test 4) [%]
CC(C)O [100% Isopropyl alcohol, isopropyl alcohol]	66	about 60%	
CCOCCOCCO [100% Transcutol ®, 2-(2-ethoxyethoxy)ethanol]	100	~100%	100.0
